# What was measured:
# Test in all cases: Prophylactic effect on ischemic breakdown of cytoskeletal proteins, 5-minute brain ischemia-reperfusion model
# Assay type in all cases: in vivo, gerbil
# clathrin = settings: for Total score, Clathrin: number of brain sites with significant effect
# Method: (§1) A gerbil was immobilized in supine position and median section was performed in the cervical region under local anesthesia. Then, the bilateral common carotid arteries were stripped off carefully not to injure the vagus and sympathetic nerves running in parallel, . Then, each common carotid artery was obstructed with a small clip and after an interval of 5, 10 or 15 minutes, the clips were removed. The animal was decapitated immediately, 4 days or 1 week after the removal of the clips, and the brain was isolated. Untreated animals served as controls and animals undergoing sham operation (involving the stripping procedure only) were also investigated. The isolated brain was sectioned under ice-cooling into the frontal cortex (upper 2/3, approximately corresponding to the 1st to the 5th layer, ∼80 mg), striatum (∼20 mg) and hippocampus (∼50 mg) and each portion was homogenized in 4 times volume of (v/w) of 0.01 M phosphate buffer (pH 7.2). Each homogenate was centrifuged at 100,000 G for 30 minutes to obtain a supernatant. Equal parts of these supernatants were subjected to SDS-polyacrylamide gel (5%) electrophoresis and the proteins, namely MAP-2 (MW: 250-260K) calspectin (MW: 230-240K) and clathrin (MW: 180K), were quantified by measuring the absorbances at 560 nm with a densitometer (CS-930, Shimazu), and the proportion of each protein to the total water-soluble protein (exactly, the integral sum of the absorbance areas) was calculated. In addition, the relative percentage to the value of the untreated control group was also calculated.
# (§2) Two series of experiments were carried out. […] One hour after the reperfusion, the animal was killed by decapitation and the brain was removed. […] One hour after the final administration (day 5), the animal was decapitated and the brain was isolated. The isolated brain was subjected to fractionation and electrophoresis as described above.
# calspectin = settings: number of brain sites with significant effect
# Method: as §1, §2
# MAP-2 = test system: MAP-2
# Method: as §1, §2
# [1] = Left: dosed 1 hour before ischemia, killed 1 hour after ischemia
# [2] = Right: dosed 1 hour before ischemia and for 4 subsequent days
# [3] = Left: dosed 1 hour before ischemia, killed 1 hour after ischemia, number of brain sites with significant effect
# [4] = Right: dosed 1 hour before ischemia and for 4 subsequent days, number of brain sites with significant effect
# [5] = sum of left and right (in brackets)
structure (smiles),measurement,setting,value
"COC(=O)C1=C(C)NC(C)=C(C(=O)OCCN(C)Cc2ccccc2)C1c1cccc([N+](=O)[O-])c1 (centres unmarked) [Nicardipine, nicardipine]","Total score, Clathrin",clathrin; [1],0/0 (0)
same,"Total score, Clathrin",clathrin; [2],0/0 (0)
same,"Total score, Calspectin",calspectin; [1],0/0 (0)
same,"Total score, Calspectin",calspectin; [2],0/0 (0)
same,"Total score, MAP-2",MAP-2; [3],2
same,"Total score, MAP-2",MAP-2; [4],2
same,"Total score, MAP-2",MAP-2; [5],4
"COCCOC(=O)C1=C(C)NC(C)=C(C(=O)OC(C)C)C1c1cccc([N+](=O)[O-])c1 (centres unmarked) [Nimodipine, nimodipine]",Clathrin protein concentration,"clathrin; Cortex, 0.01 mg/kg s.c. 1 hour before ischemia, 1 hour after ischemia",81.9± 5.5 % of normal value
same,Clathrin protein concentration,"clathrin; Cortex, 0.1 mg/kg s.c. 1 hour before ischemia and once a day for 4 days, 4 days after ischemia",52.3± 9.5 % of normal value
same,Clathrin protein concentration,"clathrin; Cortex, 0.1 mg/kg s.c. 1 hour before ischemia, 1 hour after ischemia",81.8± 6.3 % of normal value
same,Clathrin protein concentration,"clathrin; Cortex, 1 mg/kg s.c. 1 hour before ischemia and once a day for 4 days, 4 days after ischemia",55.8± 8.5 % of normal value
same,Clathrin protein concentration,"clathrin; Cortex, 1 mg/kg s.c. 1 hour before ischemia, 1 hour after ischemia",85.9± 4.0 % of normal value
same,Clathrin protein concentration,"clathrin; Cortex, 10 mg/kg s.c. 1 hour before ischemia and once a day for 4 days, 4 days after ischemia",54.6± 5.7 % of normal value
same,Clathrin protein concentration,"clathrin; Hippocampus, 0.01 mg/kg s.c. 1 hour before ischemia, 1 hour after ischemia",52.1± 3.3 % of normal value
same,Clathrin protein concentration,"clathrin; Hippocampus, 0.1 mg/kg s.c. 1 hour before ischemia and once a day for 4 days, 4 days after ischemia",46.6± 4.2 % of normal value
same,Clathrin protein concentration,"clathrin; Hippocampus, 0.1 mg/kg s.c. 1 hour before ischemia, 1 hour after ischemia",56.7± 7.1 % of normal value
same,Clathrin protein concentration,"clathrin; Hippocampus, 1 mg/kg s.c. 1 hour before ischemia and once a day for 4 days, 4 days after ischemia",51.2±10.7 % of normal value
same,Clathrin protein concentration,"clathrin; Hippocampus, 1 mg/kg s.c. 1 hour before ischemia, 1 hour after ischemia",61.6±12.2 % of normal value
same,Clathrin protein concentration,"clathrin; Hippocampus, 10 mg/kg s.c. 1 hour before ischemia and once a day for 4 days, 4 days after ischemia",64.6±15.0 % of normal value
same,"Total score, Clathrin",clathrin; [1],0/0 (0)
same,"Total score, Clathrin",clathrin; [2],0/0 (0)
same,Clathrin protein concentration,"clathrin; Striatum, 0.01 mg/kg s.c. 1 hour before ischemia, 1 hour after ischemia",70.5±21.1 % of normal value
same,Clathrin protein concentration,"clathrin; Striatum, 0.1 mg/kg s.c. 1 hour before ischemia and once a day for 4 days, 4 days after ischemia",53.6±11.3 % of normal value
same,Clathrin protein concentration,"clathrin; Striatum, 0.1 mg/kg s.c. 1 hour before ischemia, 1 hour after ischemia",68.7±11.9 % of normal value
same,Clathrin protein concentration,"clathrin; Striatum, 1 mg/kg s.c. 1 hour before ischemia and once a day for 4 days, 4 days after ischemia",57.9± 5.3 % of normal value
same,Clathrin protein concentration,"clathrin; Striatum, 1 mg/kg s.c. 1 hour before ischemia, 1 hour after ischemia",69.8±12.7 % of normal value
same,Clathrin protein concentration,"clathrin; Striatum, 10 mg/kg s.c. 1 hour before ischemia and once a day for 4 days, 4 days after ischemia",62.0±10.2 % of normal value
same,"Total score, Calspectin",calspectin; [1],0/0 (0)
same,"Total score, Calspectin",calspectin; [2],0/0 (0)
same,"Total score, MAP-2",MAP-2; [3],2
same,"Total score, MAP-2",MAP-2; [4],1
same,"Total score, MAP-2",MAP-2; [5],3
